# How the values were obtained:
# [1] = system: human lung tumor cells (A427); assay: Anchorage-independent growth inhibition assay (colony formation in soft agar); assay type: cell-based; conditions: for Expected Colonies: A427 cells, (cells plated)(Surviving Fraction)(Frequency)
# Protocol: (§1) An anchorage-independent growth inhibition assay was performed as described in Korytynski, et al. (1996) “The development of an anchorage-independence assay using human lung tumor cells to screen potential chemopreventive agents,” Anticancer Res. 16, 1091–1094; and Sharma, et al. (1997) “The anchorage-independent assay as a screening tool to identify potential chemopreventive agents,” Methods Cell Sci. 19, 9–12. The assay measures the inhibition of colony formation of human lung tumor cells (A427) cells grown in soft agar. In this assay, A427 cells were grown in the presence of the test agent, SR 13196, EGCG or 13-cis-RA Control samples were tested using an equivalent volume of DMSO alone. A concurrent assay for cell survival was also performed.
# (§2) Thus, SR 13196 inhibits colony formation of A427 cells in vitro, as well as their survival, and in a dose-dependent manner.
# MDA-MB-231 (ER−) = assay: MTT growth inhibition assay, MDA-MB-231 breast cancer cells; assay type: cell-based
# Protocol: (§3) Compounds of the invention were tested for their ability to inhibit growth in two breast cancer cell lines, MCF-7 (ER+) and MDA-MB-231 (ER−).
# (§4) The growth inhibition assays were conducted using routine methods. Briefly, the cells were seeded in 24-well plates at a density of 2000 cells per well in 200 μL of […] growth medium. To each well was added 10 μL of DMSO containing the dissolved test compound; final DMSO concentration in each well was not more than 0.5%. Each test compound was assayed at concentrations of 0.4, 2, 10, and 50 μM. The plates were incubated for eight days, with the media and test solutions replaced every third day. On Day 8, the viable cells were measured by the MTT assay, as described in Mosmann et al. (1983), “Rapid Colorimetric Assay for Cellular Growth and Survival: Application to Proliferation and Cytotoxicity,” J. Immunol. Method. 65:55–63. The optical density at 575 nm of each test well was measured and compared to that for control wells, and the data used to calculate the percentage of growth inhibition at different concentrations. The IC50 value (the concentration of growth inhibitor that results in 50% growth inhibition of the cells in culture relative to control cells not exposed to any growth inhibitor) was determined by plotting dose-response curves.
# (§5) The calculated IC50 values are set forth in Table 1, with the results representing the average of at least two experiments conducted for each compound at each of the four concentrations.
# (§6) The foregoing procedures were repeated with additional compounds of the invention to evaluate the their ability to inhibit growth in MCF-7 (ER+) and MDA-MB-231 (ER−).
# in vitro = conditions: human, Caco-2, pH 7.4
# Source text: (§7) The Caco-2 human colon adenocarcinoma cell line has become accepted as a predictive model for human intestinal absorption. […] The transport is reported as a permeability coefficient, P(app), which is compared to those of the known standards.
# MCF-7 (ER+) = assay: MTT growth inhibition assay, MCF-7 breast cancer cells; assay type: cell-based
# Protocol: as §3, §4, §5, §6
# MCF-7 cells = assay: Cell cycle studies in MCF-7 cells; assay type: cell-based; conditions: 10 μM
# Source text: To establish that the analogs of EGCG also act via the same mechanisms as EGCG itself, the active analog SR 13196 in cell cycle studies in MCF-7 cells was examined.
# A427 cells = assay: Concurrent assay for cell survival; assay type: cell-based, human; conditions: highest concentration tested (25 μM)
# Protocol: as §1, §2
# [2] = standards of known oral bioavailability; cited from earlier work
# [3] = system: Caco-2 human colon adenocarcinoma cell line; assay: Caco-2 intestinal permeability model; conditions: for Papp: Caco-2, pH 7.4
# Source text: as §7
# [4] = Homo sapiens, MDA-MB-231, 192 h, Table 1, 8 days
# [5] = Homo sapiens, MCF7, 192 h, Table 1, 8 days
# [6] = Table 2 (repeat run with additional compounds), 8 days
# [7] = Homo sapiens, MDA-MB-231, 192 h, Table 2 (repeat run with additional compounds), 8 days
# [8] = Homo sapiens, MCF7, 192 h, Table 2 (repeat run with additional compounds), 8 days
structure (smiles),measurement,setting,value
COc1cc([C@H]2Oc3cc(O)cc(O)c3C[C@H]2OC(=O)c2cc(C)c(O)c(C)c2)cc(OC)c1OC (relative stereo) [SR 13196],"inhibition of colony formation, in words",[1]; A427 cells in soft agar,inhibited colony formation to a much greater extent than either EGCG or 13-cis-RA
same,Expected Colonies,[1]; 1.56 μM,277
same,Expected Colonies,[1]; 3.12 μM,160
same,Expected Colonies,[1]; 6.25 μM,67
same,Expected Colonies,[1]; 12.5 μM,52
same,inhibition at 1.56 µM,"[1]; Homo sapiens, A-427, A427 cells in soft agar, 1.56 μM",4%
same,inhibition at 3.12 µM,"[1]; Homo sapiens, A-427, A427 cells in soft agar, 3.12 μM",32%
same,inhibition at 6.25 µM,"[1]; Homo sapiens, A-427, A427 cells in soft agar, 6.25 μM",43%
same,inhibition at 12.5 µM,"[1]; Homo sapiens, A-427, A427 cells in soft agar, 12.5 μM",46%
same,inhibition at 25 µM,"[1]; Homo sapiens, A-427, A427 cells in soft agar, 25 μM",81%
same,IC50,MDA-MB-231 (ER−); [4],19.6 µM
same,Papp at 100 μM,in vitro,6.82 ± 0.83 ×10⁻⁶ cm/s
same,IC50,MCF-7 (ER+); [5],8.39 µM
same,effect on cell cycle,MCF-7 cells,arrests the cell cycle in G1
"CC1=C(/C=C/C(C)=C/C=C/C(C)=C\C(=O)O)C(C)(C)CCC1 [Compound 13-cis-RA, reference compound]",surviving cells,A427 cells,68%
same,Expected Colonies,[1]; 1.56 μM,332
same,Expected Colonies,[1]; 3.12 μM,320
same,Expected Colonies,[1]; 6.25 μM,289
same,Expected Colonies,[1]; 12.5 μM,265
same,Expected Colonies,[1]; 25 μM,254
"CN1C(=O)CN=C(c2ccccc2)c2cc(Cl)ccc21 [Diazepam, diazepam]",% Absorbed (literature value),[2],100%
"O=C(O[C@@H]1Cc2c(O)cc(O)cc2O[C@@H]1c1cc(O)c(O)c(O)c1)c1cc(O)c(O)c(O)c1 [EGCG, (−)-epigallocatechin-3-gallate, reference compound]",Expected Colonies,[1]; 1.56 μM,386
same,Expected Colonies,[1]; 3.12 μM,382
same,Expected Colonies,[1]; 6.25 μM,378
same,Expected Colonies,[1]; 12.5 μM,331
same,Expected Colonies,[1]; 25 μM,191
same,IC50,MDA-MB-231 (ER−); [6],36.9 µM
same,"permeability coefficient (Papp), in words","[3]; Caco-2 model, summary of the experiments",low permeability coefficient
same,IC50,MCF-7 (ER+); [6],37.1 µM
same,effect on cell cycle,MCF-7 cells,arrests the cell cycle in G1
"Nc1nc(O)c2ncn(COC(CO)CO)c2n1 [Ganciclovir, ganciclovir]",% Absorbed (literature value),[2],3%
"COc1cc(C2Oc3cc(O)cc(O)c3C[C@H]2OC(=O)c2cc(O)c(O)c(O)c2)cc(OC)c1OC (stereo partly drawn) [SR 13194, trans-5,7-DIHYDROXY-2-(3,4,5-TRIMETHOXY-PHENYL)-3,4-DIHYDRO-2H-CHROMAN-3-YL, 3,4,5-TRIHYDROXY-BENZOIC ACID ESTER]",IC50,MDA-MB-231 (ER−); [4],> 100 µM
same,IC50,MCF-7 (ER+); [5],> 100 µM
"COc1cc([C@H]2Oc3cc(O)cc(O)c3C[C@H]2OC(=O)c2cc(O)c(O)c(O)c2)cc(OC)c1OC [SR 13195, cis-5,7-DIHYDROXY-2-(3,4,5-TRIMETHOXY-PHENYL)-3,4-DIHYDRO-2H-CHROMAN-3-YL, 3,4,5-TRIHYDROXY-BENZOIC ACID ESTER]",IC50,MDA-MB-231 (ER−); [4],> 100 µM
same,IC50,MCF-7 (ER+); [5],> 100 µM
"COc1cc(OC)c2c(c1)OC(c1cc(O)c(O)c(O)c1)[C@H](OC(=O)c1cc(O)c(O)c(O)c1)C2 (stereo partly drawn) [SR 13198, trans-5,7-DIMETHOXY-2-(3,4,5-TRIHYDROXY-PHENYL)-3,4-DIHYDRO-2H-CHROMAN-3-YL, 3,4,5-TRIHYDROXY-BENZOIC ACID ESTER]",IC50,MDA-MB-231 (ER−); [7],35.9 µM
same,IC50,MCF-7 (ER+); [8],42.1 µM
COc1cc(OC)c2c(c1)O[C@H](c1cc(O)c(O)c(O)c1)[C@H](OC(=O)c1cc(C)c(O)c(C)c1)C2 [SR 13200],IC50,MDA-MB-231 (ER−); [7],22.6 µM
same,IC50,MCF-7 (ER+); [8],22.9 µM
Cc1cc(C)c2c(c1)OC(c1cc(O)c(O)c(O)c1)[C@H](OC(=O)c1cc(O)c(O)c(O)c1)C2 (stereo partly drawn) [SR 13911],IC50,MDA-MB-231 (ER−); [7],25.7 µM
same,Papp at 100 μM,in vitro,1.42 ± 1.6 ×10⁻⁶ cm/s
same,IC50,MCF-7 (ER+); [8],23.6 µM
Cc1cc(C)c2c(c1)O[C@H](c1cc(O)c(O)c(O)c1)[C@H](OC(=O)c1cc(O)c(O)c(O)c1)C2 [SR 13912],IC50,MDA-MB-231 (ER−); [7],53.7 µM
same,IC50,MCF-7 (ER+); [8],21.8 µM
Cc1cc(C)c2c(c1)O[C@H](c1cc(O)c(O)c(O)c1)[C@H](OC(=O)c1cc(C)c(O)c(C)c1)C2 [SR 13913],Papp at 100 μM,in vitro,< 0.06 ×10⁻⁶ cm/s
same,IC50,MCF-7 (ER+); [8],17.2 µM
COc1cc([C@H]2Oc3cc(O)cc(O)c3C[C@H]2OC(=O)c2cc(O)c(O)c(O)c2)cc(OC)c1O [SR 13915],IC50,MDA-MB-231 (ER−); [6],> 100 µM
same,Papp,[3],5.17 ± 0.49 ×10⁻⁶ cm/s
same,IC50,MCF-7 (ER+); [6],> 100 µM
Cc1cc(C(=O)O[C@@H]2Cc3c(O)cc(O)cc3O[C@@H]2c2cc(C)c(O)c(C)c2)cc(C)c1O [SR 13916],IC50,MDA-MB-231 (ER−); [6],10.2 µM
same,IC50,MCF-7 (ER+); [6],6.61 µM
Cc1cc([C@H]2Oc3cc(O)cc(O)c3CC2OC(=O)c2cc(O)c(O)c(O)c2)cc(C)c1O (stereo partly drawn) [SR 13917],IC50,MDA-MB-231 (ER−); [6],2.98 µM
same,IC50,MCF-7 (ER+); [6],6.12 µM
Cc1cc([C@H]2Oc3cc(O)cc(O)c3C[C@H]2OC(=O)c2cc(O)c(O)c(O)c2)cc(C)c1O [SR 13918],IC50,MDA-MB-231 (ER−); [6],46.8 µM
same,IC50,MCF-7 (ER+); [6],> 100 µM
COc1cc(C(=O)O[C@@H]2Cc3c(C)cc(C)cc3O[C@@H]2c2cc(O)c(O)c(O)c2)cc(OC)c1OC [SR 13919],IC50,MDA-MB-231 (ER−); [6],7.76 µM
same,Papp,[3],< 0.06 ×10⁻⁶ cm/s
same,IC50,MCF-7 (ER+); [6],8.35 µM
COc1cc([C@H]2Oc3cc(O)cc(O)c3C[C@H]2OC(=O)c2cc(C)c(O)c(C)c2)cc(OC)c1O [SR 13920],IC50,MDA-MB-231 (ER−); [6],9.97 µM
same,IC50,MCF-7 (ER+); [6],33.1 µM
